Results taken from patent US10660910B2, “Use of sedoheptulose for prevention or treatment of inflammation” (C7 SUGAR GMBH, priority 2013, dated 2020).

Assays:
[1] = tested on: primary bone marrow derived macrophages; test: Bone marrow derived macrophages, basal cytokine mRNA (RT-PCR) and secretion (ELISA); type: cell-based, mouse
Method: FIG. 3: (A-E) Primary human adipocytes were obtained by differentiation of the stromal vascular cell fraction in the presence of glucose and fructose (GF, 1.5 g/L of each sugar; total carbohydrates 3 g/L) or sedoheptulose supplemented media, which was termed GFS (1 g/L of each sugar; total carbohydrates 3 g/L), for eight days. Subsequently mRNA levels of (A) CARKL, (B) adiponectin and (C) uncoupling protein 1 (UCP-1) was assessed by RT-PCR and compared between the groups. (D) Cellular oxygen consumption rates (OCR) and (E) extracellular acidification rates (ECAR) of adipocytes were recorded in the presence of indicated carbohydrate-mix (mean+/−S.D., n=9-11). (F) Tumor necrosis factor alpha (TNFa) and (G) interleukin 6 (IL-6) mRNA expression levels of mature murine adipocytes cultivated for three days in cell culture media containing either GF or GFS carbohydrate mix, or (H) IL-6 expression in primary murine hepatocytes, as well as (I) TNFa and (J) IL-6 mRNA levels in primary bone marrow derived macrophages, both cell types were pre-cultured for two days in GF or GFS media, were compared between respective groups. Secretion of (K) TNFa and (L) IL-6 cytokines over the period of two days was measured by ELISA in the supernatant of bone marrow derived macrophages. LPS-induced (100 ng/ml) secretion of (M) TNFa 2 hrs after activation and (N) IL-6 6 hrs after activation in the respective media by macrophages was also measured by ELISA. Data represents mean+/−S.D., n=3)
Mouse bones were isolated from male wild-type and CARKL overexpressing mice and bone marrow wash flushed, washed and cleared from redblood cells by lysis, and subsequently differentiated in DMEM containing 25 mM glucose and 20 ng/ml M-CSF. After 4 days, cells for osteoclast differentiation were harvested and seeded in corning osteo assay plates with differentiation media (see below), and for primary bone marrow derived macrophages (BMDM) the medium was renewed and further supplemented with M-SCF for two days. Differentiated BMDM were then seeded in respective DMEM-media containing 10% FBS and indicated carbohydrate mixes at 3 g/L (glucose and fructose (GF), or glucose, fructose and sedoheptulose (GFS)) at least two days before experiments were performed.
(§1) Briefly, total RNA was extracted and reverse-transcribed using commercial kits (QIAGEN, Applied Biosystems). Quantitative real-time PCRs were performed on an AbiPRISM 7900HT real-time cycler using iTaq SYBR Green Supermix with ROX (BioRad) to measure CARKL, adiponectin, UCP-1, TNFa, IL-6, MCP-1, and beta-actin expression as previously described (Haschemi et al., Cell Metab. 15 (2012), 813-826). Expression of target gene was normalized to beta-actin expression. Relative expression of target gene was calculated by the delta-delta CT method.

[2] = tested on: primary murine hepatocytes; test: Primary murine hepatocyte culture, IL-6 mRNA by RT-PCR; type: cell-based, mouse; details: pre-cultured two days in GFS vs GF media, FIG. 3H
Method: Hepatocytes were isolated from male wild-type and CARKL overexpressing mice after the mice were sacrificed by hepatic in situ collagenase perfusion. After perfusion, the liver was quickly removed, minced, and filtered through a cell strainer (Fisher Scientific, Inc) into a 50 ml sterile tube. Hepatocytes in the resulting filtrate were purified from the nonparenchymal cells by centrifugation steps. The isolated hepatocytes were seeded into plates at a concentration of 0.25×10^6/ml in respective DMEM-media containing 10% FBS and indicated carbohydrate mixes at 3 g/L (glucose and fructose (GF), or glucose, fructose and sedoheptulose (GFS)) at least two days before experiments were performed.
as §1

[3] = tested on: primary human adipocytes; test: Extracellular acidification and oxygen consumption rates (XF-Analyzer) in human adipocytes; type: cell-based; details: adipocytes differentiated and cultured in sedoheptulose containing media vs controls
Method: Stromal vascular fraction cells (SVFs) from subcutaneous white adipose tissue of a patient undergoing abdominal surgery were isolated as described before (Lindroos et al, Cell Metab. (2013), July 2; 18(1):62-74.). Briefly, adipose tissue was digested with Collagenase II (Worthington) and filtered. SVFs were separated from mature adipocytes by centrifugation, followed by the lysis of erythrocytes in the SVF-fraction (Buffer EL, Qiagen). The purified SVFs were cultured in DMEM/F12, 10% FBS (Gibco, Life Technologies). As soon as the cells reached confluence, they were washed with DMEM/F12 w/o glucose (Biowest) and the medium was replaced by DMEM/F12 with a total carbohydrate load of 3 g/L, containing 1.5 g/L glucose and fructose or 1 g/L each of glucose, fructose, and sedoheptulose, respectively. […]
The XF-Analyzer (Seahorse Bio.) was used to measure changes in cellular metabolism induced by different carbohydrates. Extracellular acidification rates (ECAR, mpH/min) and oxygen consumption rates (OCR, pmoles/min) were recorded in primary human adipocytes and primary murine hepatocytes according to the manufacture instructions. […] Changes induced by the different carbohydrate sources were expressed as relative change in % to illustrate the effect of each carbon source.

[4] = Glucose and sedoheptulose measurement in human serum before and after carrot meal (GC-MS); type: in vivo; details: humans, two hours after a meal of mainly steamed carrots (~700 g per male adult) vs overnight fasted, n=4, FIG. 1B
Text: Fresh carrots with an Austrian “organic-certificate” were sliced into small pieces and snap-frozen in liquid nitrogen. The same procedure was applied to leaves freshly harvested from indoor-grown Sedum Spectabile plants. Three samples of each tissue were pooled and homogenized to powder by glass-beads. The carbohydrate rich fractions of the samples were isolated by 20% H2O and 80% MeOH extraction solution spiked with 13 C standards and processed for standard gas-chromatography coupled to mass spectrometry (GC-MS). Glucose and sedoheptulose were identified by their individual masses and their relative amount was derived from the peak area of each individual analyte normalized to 13 C content. Glucose and sedoheptulose were also measured in equal volumes of serum from overnight fasted or carrot fed individuals. The carrots were steamed and some olive-oil, salt and pepper were used for flavour. Two hours before and two hours after the carrot containing meal human serum was prepared in VACUETTE® Z Serum Sep tubes from blood. Serum samples were processed as previously described and also analyzed by GC-MS as detailed above and in Ruiz-Matute AI et al., Chromatogr B Analyt Technol Biomed Life Sci. (2011) May 15 879(17-18).

With `O=C(CO)[C@@H](O)[C@H](O)[C@H](O)[C@H](O)CO` [sedoheptulose, Sedoheptulose] the “basal TNFa mRNA expression” value ([1]; pre-cultured two days in GFS vs GF media, FIG. 3I) was “blocked”, the “basal IL-6 mRNA expression” value ([1]; pre-cultured two days in GFS vs GF media, FIG. 3J) was “blocked” and the “basal TNFa cytokine secretion” value ([1]; supernatant over two days, ELISA, GFS vs GF media, FIG. 3K) was “blocked”. The “basal IL-6 cytokine secretion” value ([1]; supernatant over two days, ELISA, GFS vs GF media, FIG. 3L) was “blocked”, the IL-6 expression [2] was “less” and the “cellular oxygen consumption rates (OCR)” value ([3]; FIG. 3D) was “increased”. The “extracellular acidification rates (ECAR)” value ([3]; FIG. 3E) was “comparable” and the “increase in sedoheptulose serum levels” value [4] was “approximately two-fold”.
